Laboratory results taken from US20260042764A1, “COMPOSITIONS AND METHODS FOR INHIBITION OF KRAS” (TheRas, Inc., priority 2022, published 2026).

Tests used:
[1] = target: T1, Avi-KRAS WT (2-169) GTP/RAF1 RBD-3xFLAG (51-131) (Homo sapiens, UniProt P01116); assay: Raf1-KRAS WT-GTP disruption HTRF assay (Biological Example 3); assay type: binding; details: KRAS WT, GTP-loaded
T1 construct: Avi-KRAS WT (2-169)
Procedure, shortened: (§1)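 Compounds were titrated 10-point, 3-fold from 30 μM against preformed KRAS-GTP:RAF1 RBD (51-131) complexes at 50 nM, using KRAS 2-169 as WT, G12C, G12D or G12V. After 1 h at room temperature in Tris pH 7.5 buffer with MgCl2 and 10% DMSO, time-resolved fluorescence was read. Results are percent activity versus DMSO.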

SW620 cells (KRAS G12V) = assay: Cell-based pERK HTRF assay in SW620 cell (Biological Example 4)
Procedure, shortened: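 SW620 (KRAS G12V) cells seeded at 3×10^4/well in RPMI, 10% FBS, then treated next day for 4 h with a 9-point half-log series from 1 μM top (0.25% DMSO). Lysates analyzed for pERK by HTRF (Eu cryptate/d2 antibodies, 4–24 h at room temperature), excitation 320 nm, emission 615 nm.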

[2] = target: T2, Avi-KRAS G12C (2-169) GTP/RAF1 RBD-3xFLAG (51-131) (Homo sapiens, UniProt P01116, G12C); assay: Raf1-KRAS G12C-GTP disruption HTRF assay (Biological Example 3); assay type: binding; details: KRAS G12C, GTP-loaded
T2 construct: Avi-KRAS G12C (2-169)
T2 sequence (P01116 2-169 isoform P01116-2 G12C): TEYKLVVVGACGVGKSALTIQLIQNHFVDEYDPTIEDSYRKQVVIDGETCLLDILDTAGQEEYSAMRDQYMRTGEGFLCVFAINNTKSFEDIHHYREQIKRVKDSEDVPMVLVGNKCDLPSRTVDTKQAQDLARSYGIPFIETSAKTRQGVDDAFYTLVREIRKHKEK
Procedure, shortened: as §1

[3] = target: T3, Avi-KRAS G12D (2-169) GTP/RAF1 RBD-3xFLAG (51-131) (Homo sapiens, UniProt P01116, G12D); assay: Raf1-KRAS G12D-GTP disruption HTRF assay (Biological Example 3); assay type: binding; details: KRAS G12D, GTP-loaded
T3 construct: Avi-KRAS G12D (2-169)
T3 sequence (P01116 2-169 isoform P01116-2 G12D): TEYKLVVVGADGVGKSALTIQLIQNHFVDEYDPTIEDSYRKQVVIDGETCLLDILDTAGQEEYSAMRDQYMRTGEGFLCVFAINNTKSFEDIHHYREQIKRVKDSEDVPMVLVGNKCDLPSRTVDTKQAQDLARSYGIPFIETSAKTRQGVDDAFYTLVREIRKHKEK
Procedure, shortened: as §1

GP2d cells (KRAS G12D) = assay: Cell-based pERK HTRF assay in GP2d cell (Biological Example 2); details: GP2d (KRAS G12D) cells
Procedure, shortened: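 Phospho-ERK in lysed cells was detected by HTRF using Eu cryptate and d2 antibodies, read between 4 and 24 h at room temperature. Prior to lysis, KRAS G12D GP2d cells, seeded the day before in DMEM with 10% FBS, were exposed to compounds for 60 min. Compounds were tested as 9-point half-log curves from 1 μM or 100 nM top, with 0.25% DMSO.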

[4] = target: T4, Avi-KRAS G12V (2-169) GTP/RAF1 RBD-3xFLAG (51-131) (Homo sapiens, UniProt P01116, G12V); assay: Raf1-KRAS G12V-GTP disruption HTRF assay (Biological Example 3); assay type: binding; details: KRAS G12V, GTP-loaded
T4 construct: Avi-KRAS G12V (2-169)
T4 sequence (P01116 2-169 isoform P01116-2 G12V): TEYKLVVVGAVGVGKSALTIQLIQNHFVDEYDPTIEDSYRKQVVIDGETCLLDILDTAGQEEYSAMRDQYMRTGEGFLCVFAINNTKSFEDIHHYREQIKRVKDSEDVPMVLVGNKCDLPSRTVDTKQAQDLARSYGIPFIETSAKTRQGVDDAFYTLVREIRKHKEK
Procedure, shortened: as §1

[5] = Homo sapiens, SW-620, SW620 (KRAS G12V) cells

T1 sequence (P01116 2-169 isoform P01116-2): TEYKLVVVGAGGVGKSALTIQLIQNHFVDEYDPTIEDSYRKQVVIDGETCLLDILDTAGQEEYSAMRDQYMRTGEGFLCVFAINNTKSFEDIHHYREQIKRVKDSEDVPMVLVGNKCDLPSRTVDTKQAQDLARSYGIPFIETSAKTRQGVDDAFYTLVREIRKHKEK

IC50 [1] [nM] | IC50 (SW620 cells (KRAS G12V); [5]) [nM] | IC50 [2] [nM] | IC50 [3] [nM] | IC50 (GP2d cells (KRAS G12D); GP2d) [nM] | IC50 [4] [nM] | IC50 (SW620 cells (KRAS G12V); SW620 (KRAS G12V) cells) [nM] | IC50 (GP2d cells (KRAS G12D)) [nM] | SMILES
1000 to 10000 | < 100 | 1000 to 10000 | 100 to 1000 | < 100 | 1000 to 10000 | – | – | CCN(c1nc(OC[C@@]23CCCN2C[C@H](F)C3)nc2c(F)c(-c3ccc(F)c4sc(N)c(C#N)c34)c(C(F)(F)F)cc12)[C@H]1CCCN(C)C1=O (atropisomer, axis not shown) [Compound 967]
100 to 1000 | < 100 | 100 to 1000 | 100 to 1000 | < 100 | 100 to 1000 | – | – | CN(Cc1cnoc1)c1nc(OC[C@@]23CCCN2C[C@H](F)C3)nc2c(F)c(-c3ccc(F)c4sc(N)c(C#N)c34)c(C(F)(F)F)cc12 (atropisomer, axis not shown) [Compound 935]
100 to 1000 | < 100 | 100 to 1000 | 100 to 1000 | < 100 | 100 to 1000 | – | – | CCN(c1nc(OC[C@@]23CCCN2C[C@H](F)C3)nc2c(F)c(-c3ccc(F)c4sc(N)c(C#N)c34)c(C(F)(F)F)cc12)[C@H]1CCN(C(=O)C2CC(OC)C2)C1 (stereo partly drawn) [Compound 844]
1000 to 10000 | – | > 10000 | 1000 to 10000 | – | > 10000 | < 100 | < 100 | CN(c1nc(OCC23CCCN2CC(F)C3)nc2c(F)c(-c3ccc(F)c4sc(N)c(C#N)c34)c(C(F)(F)F)cc12)C1CCc2ccncc21 (stereo not drawn) [Compound 962]
1000 to 10000 | < 100 | 1000 to 10000 | 100 to 1000 | < 100 | 1000 to 10000 | – | – | CCN(c1nc(OC[C@@]23CCCN2C[C@H](F)C3)nc2c(F)c(-c3ccc(F)c4sc(N)c(C#N)c34)c(C(F)(F)F)cc12)[C@H]1C[C@H]2CN(C(C)(C)C)C(=O)N2C1 (atropisomer, axis not shown) [Compound 936]
> 10000 | – | > 10000 | 1000 to 10000 | – | > 10000 | 100 to 1000 | < 100 | CCN(c1nc(OC[C@]23CCCN2C[C@H](F)C3)nc2c(F)c(-c3ccc(F)c4sc(N)c(C#N)c34)c(C(F)(F)F)cc12)[C@H]1CCN(C(=O)OC)C1 (atropisomer, axis not shown) [Compound 955]
1000 to 10000 | < 100 | 100 to 1000 | 100 to 1000 | < 100 | 100 to 1000 | – | – | CCN(c1nc(OC[C@@]23CCCN2C[C@H](F)C3)nc2c(F)c(-c3ccc(F)c4sc(N)c(C#N)c34)c(C(F)(F)F)cc12)[C@H]1CCN(C(=O)c2ccc(C)s2)C1 (atropisomer, axis not shown) [Compound 911]
> 10000 | 100 to 1000 | > 10000 | > 10000 | < 100 | > 10000 | – | – | N#Cc1c(N)sc2c(F)ccc(-c3c(C(F)(F)F)cc4c(N5CCc6ccncc6C5)nc(OC[C@@]56CCCN5C[C@H](F)C6)nc4c3F)c12 [Compound 942]
1000 to 10000 | 100 to 1000 | 1000 to 10000 | 100 to 1000 | < 100 | 1000 to 10000 | – | – | CCN(c1nc(OC[C@@]23CCCN2C[C@H](F)C3)nc2c(F)c(-c3ccc(F)c4sc(N)c(C#N)c34)c(C(F)(F)F)cc12)[C@H]1CCN(C(=O)[C@H]2CCO2)[C@H]1C (atropisomer, axis not shown) [Compound 868]
100 to 1000 | < 100 | 100 to 1000 | 100 to 1000 | < 100 | 100 to 1000 | – | – | CCN(c1nc(OC[C@@]23CCCN2C[C@H](F)C3)nc2c(F)c(-c3ccc(F)c4sc(N)c(C#N)c34)c(C(F)(F)F)cc12)[C@H]1CCN(C(=O)OCC(F)(F)F)C1 (atropisomer, axis not shown) [Compound 849]
1000 to 10000 | < 100 | 1000 to 10000 | 100 to 1000 | < 100 | 100 to 1000 | – | – | CN(Cc1ccno1)c1nc(OC[C@@]23CCCN2C[C@H](F)C3)nc2c(F)c(-c3ccc(F)c4sc(N)c(C#N)c34)c(C(F)(F)F)cc12 (atropisomer, axis not shown) [Compound 917]
1000 to 10000 | < 100 | 1000 to 10000 | 1000 to 10000 | < 100 | 1000 to 10000 | – | – | CCN(c1nc(OC[C@@]23CCCN2C[C@H](F)C3)nc2c(F)c(-c3ccc(F)c4sc(N)c(C#N)c34)c(C(F)(F)F)cc12)[C@@H]1CC[C@H](C(=O)N(C)C)C1 [Compound 959]
1000 to 10000 | < 100 | 100 to 1000 | 100 to 1000 | < 100 | 100 to 1000 | – | – | CCN(c1nc(OC[C@@]23CCCN2C[C@H](F)C3)nc2c(F)c(-c3ccc(F)c4sc(N)c(C#N)c34)c(C(F)(F)F)cc12)[C@H]1CCN(C(=O)c2ccc(C#N)s2)C1 (atropisomer, axis not shown) [Compound 952]
100 to 1000 | < 100 | 100 to 1000 | 100 to 1000 | < 100 | 100 to 1000 | – | – | CCN(c1nc(OC[C@@]23CCCN2C[C@H](F)C3)nc2c(F)c(-c3ccc(F)c4sc(N)c(C#N)c34)c(C(F)(F)F)cc12)[C@H]1C[C@H]2CN(C3CCC3)C(=O)N2[C@@H]1C (atropisomer, axis not shown) [Compound 970]
1000 to 10000 | < 100 | 100 to 1000 | 100 to 1000 | < 100 | 100 to 1000 | – | – | CCN(c1nc(OC[C@@]23CCCN2C[C@H](F)C3)nc2c(F)c(-c3ccc(F)c4sc(N)c(C#N)c34)c(C(F)(F)F)cc12)[C@H]1CCN(C(=O)N2CC3C(C2)C3(C)C)C1 (stereo partly drawn) [Compound 817]
100 to 1000 | < 100 | ≤ 100 | ≤ 100 | < 100 | ≤ 100 | – | – | CCN(c1nc(OC[C@@]23CCCN2C[C@H](F)C3)nc2c(F)c(-c3ccc(F)c4sc(N)c(C#N)c34)c(C(F)(F)F)cc12)[C@H]1CCN(C(=O)c2coc(C)n2)C1 (atropisomer, axis not shown) [Compound 832]
100 to 1000 | < 100 | 100 to 1000 | ≤ 100 | < 100 | 100 to 1000 | – | – | CCN(c1nc(OC[C@]23CCCN2C[C@H](F)C3)nc2c(F)c(-c3ccc(F)c4sc(N)c(C#N)c34)c(C(F)(F)F)cc12)[C@H]1CCN(C(=O)OC)C1 (atropisomer, axis not shown) [Compound 954]
100 to 1000 | < 100 | 1000 to 10000 | 100 to 1000 | < 100 | 100 to 1000 | – | – | CCN(c1nc(OC[C@@]23CCCN2C[C@H](F)C3)nc2c(F)c(-c3ccc(F)c4sc(N)c(C#N)c34)c(C(F)(F)F)cc12)[C@H]1CCN(C(=O)OC)[C@@H]1COC (atropisomer, axis not shown) [Compound 923]
100 to 1000 | < 100 | 100 to 1000 | 100 to 1000 | < 100 | 100 to 1000 | – | – | CCN(c1nc(OC[C@@]23CCCN2C[C@H](F)C3)nc2c(F)c(-c3ccc(F)c4sc(N)c(C#N)c34)c(C(F)(F)F)cc12)[C@H]1C[C@H]2[C@H](C)OC(=O)N2C1 (atropisomer, axis not shown) [Compound 836]
100 to 1000 | < 100 | 100 to 1000 | 100 to 1000 | < 100 | 100 to 1000 | – | – | CCN(c1nc(OCC23CCCN2CC(F)C3)nc2c(F)c(-c3ccc(F)c4sc(N)c(C#N)c34)c(C(F)(F)F)cc12)C1CCN(C(=O)c2ncns2)C1 (stereo not drawn) [Compound 949]
1000 to 10000 | < 100 | 1000 to 10000 | 100 to 1000 | < 100 | 1000 to 10000 | – | – | CCN(c1nc(OC[C@@]23CCCN2C[C@H](F)C3)nc2c(F)c(-c3ccc(F)c4sc(N)c(C#N)c34)c(C(F)(F)F)cc12)[C@H]1CCN(C(=O)c2ncc(Cl)s2)C1 (atropisomer, axis not shown) [Compound 939]
1000 to 10000 | < 100 | 100 to 1000 | 100 to 1000 | < 100 | 100 to 1000 | – | – | CCN(c1nc(OC[C@@]23CCCN2C[C@H](F)C3)nc2c(F)c(-c3ccc(F)c4sc(N)c(C#N)c34)c(C(F)(F)F)cc12)[C@H]1CCN(C(=O)c2cnc(Cl)s2)C1 (atropisomer, axis not shown) [Compound 905]
